Assay results taken from patent US20200008426A1, “ACTIVE COMPOUND COMBINATIONS” (BAYER AKTIENGESELLSCHAFT, priority 2017, published 2020).

Assay: LogP by HPLC on reversed phase columns (EEC directive 79/831 Annex V.A8)
Conditions: Table 1, formula (I), LC-UV; for LogP [a]: acidic range, 0.1% formic acid in water and acetonitrile; for LogP [b]: neutral range, 0.001 molar ammonium acetate in water and acetonitrile
Description: Measurement of LogP values was performed according to EEC directive 79/831 Annex V.A8 by HPLC (High Performance Liquid Chromatography) on reversed phase columns with the following methods:
Lambda-max-values were determined using UV-spectra from 200 nm to 400 nm and the peak values of the chromatographic signals.

| Compound | LogP [a] | LogP [b] |
| --- | --- | --- |
| CC(O)(Cn1cncn1)c1cnc(Oc2ccc(Cl)cc2)cc1Cl (racemic) [I.08] | 2.50^[a] |  |
| CC(O)(Cn1cncn1)c1ccc(Oc2ccc(Cl)cc2)nc1Cl (racemic) [I.09] | 2.66^[a] |  |
| OC(Cn1cncn1)c1cnc(Oc2ccc(S(F)(F)(F)(F)F)cc2)cc1C(F)(F)F (racemic) [I.36] | 3.15^[a] |  |
| OC(Cn1cncn1)c1cnc(Oc2ccc(C(F)(F)F)cc2)cc1C(F)(F)F (racemic) [I.47] | 2.84^[a] |  |
| CC(O)(Cn1cncn1)c1ccc(Oc2ccc(OC(F)(F)F)cc2)nc1C(F)(F)F (racemic) [I.95] | 2.98^[a] |  |
| CC(O)(Cn1cncn1)c1ccc(Oc2ccc(Cl)cc2)nc1C(F)(F)F (racemic) [I.96] | 2.68^[a] |  |
| OC(Cn1cncn1)(c1ccc(Oc2ccc(S(F)(F)(F)(F)F)cc2)nc1C(F)(F)F)C1CC1 (racemic) [I.97] | 3.80^[a] |  |
| CCCCC(O)(Cn1cncn1)c1ccc(Oc2ccc(Cl)cc2)nc1C(F)(F)F (racemic) [I.98] | 3.87^[a] |  |
| CCCC(O)(Cn1cncn1)c1ccc(Oc2ccc(Cl)cc2)nc1C(F)(F)F (racemic) [I.100] | 3.55^[a] |  |
| CCC(O)(Cn1cncn1)c1ccc(Oc2ccc(Cl)cc2)nc1C(F)(F)F (racemic) [I.103] | 3.19^[a] |  |
| CC(O)(Cn1cncn1)c1cnc(Oc2ccc(Cl)cc2)cc1C(F)(F)F (single isomer, unassigned) [I.45] | 2.84^[a] |  |
| CC(O)(Cn1cncn1)c1cnc(Oc2ccc(Cl)cc2)cc1C(F)(F)F (single isomer, unassigned) [I.46] | 2.93^[a] |  |
| CC(O)(Cn1cncn1)c1ccc(Oc2ccc(Cl)cc2)nc1Cl (single isomer, unassigned) [I.51] | 2.62^[a] |  |
| CC(O)(Cn1cncn1)c1ccc(Oc2ccc(Cl)cc2)nc1Cl (single isomer, unassigned) [I.52] | 2.62^[a] |  |
| CC(O)(Cn1cncn1)c1cnc(Oc2ccc(Cl)cc2)cc1Cl (single isomer, unassigned) [I.53] | 2.53^[a] |  |
| CC(O)(Cn1cncn1)c1cnc(Oc2ccc(Cl)cc2)cc1Cl (single isomer, unassigned) [I.54] | 2.53^[a] |  |
| OC(Cn1cncn1)c1cnc(Oc2ccc(C(F)(F)F)cc2)cc1C(F)(F)F (single isomer, unassigned) [I.72] | 2.86^[a] |  |
| OC(Cn1cncn1)c1cnc(Oc2ccc(S(F)(F)(F)(F)F)cc2)cc1C(F)(F)F (single isomer, unassigned) [I.83] | 3.11^[a] |  |
| OC(Cn1cncn1)(c1ccc(Oc2ccc(Br)cc2)nc1C(F)(F)F)C1CC1 (single isomer, unassigned) [I.84] | 3.41 ^[a] |  |
| OC(Cn1cncn1)c1cnc(Oc2ccc(S(F)(F)(F)(F)F)cc2)cc1C(F)(F)F (single isomer, unassigned) [I.86] | 3.11^[a] |  |
| OC(Cn1cncn1)c1cnc(Oc2ccc(C(F)(F)F)cc2)cc1C(F)(F)F (single isomer, unassigned) [I.92] | 2.86^[a] |  |

| Compound | LogP [a] | LogP [b] |
| --- | --- | --- |
| OC(Cn1cncn1)(c1ccc(Oc2ccc(Br)cc2)nc1C(F)(F)F)C1CC1 (single isomer, unassigned) [I.99] | 3.41^[a] |  |
| CC(O)(Cn1cncn1)c1ccc(Oc2ccc(Br)cc2)nc1C(F)(F)F (single isomer, unassigned) [I.101] | 2.94^[a] |  |
| CC(O)(Cn1cncn1)c1ccc(Oc2ccc(Br)cc2)nc1C(F)(F)F (single isomer, unassigned) [I.102] | 2.94^[a] |  |
| CC(O)(Cn1cncn1)c1cnc(Oc2ccccc2)cc1Cl (centres unmarked) [I.05] | 2.10 | 2.06 |
| CC(O)(Cn1cncn1)c1ncc(Oc2ccccc2)cc1Cl (centres unmarked) [I.06] | 2.47 | 2.43 |
| CC(O)(Cn1cncn1)c1ccc(Oc2ccccc2)nc1Cl (centres unmarked) [I.07] | 2.14 | 2.09 |
| OC(Cn1cncn1)c1ccc(Oc2ccc(Cl)c(Cl)c2)nc1Cl (centres unmarked) [I.10] | 2.80^[a] |  |
| OC(Cn1cncn1)c1ccc(Oc2ccc(OC(F)(F)F)c(Cl)c2)nc1Cl (centres unmarked) [I.11] | 3.11^[a] |  |
| OC(Cn1cncn1)c1ccc(Oc2ccc(OC(F)(F)F)cc2)nc1Cl (centres unmarked) [I.12] | 2.73^[a] |  |
| OC(Cn1cncn1)c1ccc(Oc2ccccc2)nc1Cl (centres unmarked) [I.13] | 1.98^[a] |  |
| OC(Cn1cncn1)c1ccc(Oc2ccc(Cl)cc2)nc1Cl (centres unmarked) [I.14] | 2.42^[a] |  |
| Cc1cc(Cl)ccc1Oc1ccc(C(O)Cn2cncn2)c(Cl)n1 (centres unmarked) [I.15] | 2.75^[a] |  |
| Cc1ccc(Oc2ccc(C(O)Cn3cncn3)c(Cl)n2)cc1Cl (centres unmarked) [I.16] | 2.73^[a] |  |
| OC(Cn1cncn1)c1ccc(Oc2ccc(F)cc2)nc1Cl (centres unmarked) [I.17] | 2.08^[a] |  |
| OC(Cn1cncn1)c1ccc(Oc2ccc(F)cc2F)nc1Cl (centres unmarked) [I.18] | 2.18^[a] |  |
| OC(Cn1cncn1)c1ccc(Oc2ccccc2F)nc1Cl (centres unmarked) [I.19] | 2.08^[a] |  |
| OC(Cn1cncn1)c1ccc(Oc2cc(F)c(F)c(F)c2)nc1Cl (centres unmarked) [I.20] | 1.65^[a] |  |
| OC(Cn1cncn1)c1cnc(Oc2ccccc2)cc1Cl (centres unmarked) [I.21] | 1.92^[a] |  |
| OC(Cn1cncn1)c1ncc(Oc2ccccc2)cc1Cl (centres unmarked) [I.22] | 2.01^[a] |  |
| OC(Cn1cncn1)c1ccc(Oc2ccc(Cl)cc2Cl)nc1Cl (centres unmarked) [I.23] | 2.75^[a] |  |
| CC(O)c1ccc(Oc2ccc(C(O)Cn3cncn3)c(Cl)n2)cc1 (centres unmarked) [I.24] | 1.48^[a] |  |

| Compound | LogP [a] | LogP [b] |
| --- | --- | --- |
| OC(Cn1cncn1)c1ccc(Oc2ccc(Cl)cc2)nc1C(F)F (centres unmarked) [I.25] | 2.44^[a] |  |
| OC(Cn1cncn1)c1ccc(Oc2ccc(Cl)cc2)nc1OC(F)(F)F (centres unmarked) [I.26] | 2.92^[a] |  |
| CC(O)(Cn1cncn1)c1ccc(Oc2ccc(F)cc2)nc1Cl (centres unmarked) [I.27] | 2.28^[a] |  |
| Cc1cc(Cl)ccc1Oc1ccc(C(C)(O)Cn2cncn2)c(Cl)n1 (centres unmarked) [I.28] | 2.94^[a] |  |
| Cc1ccc(Oc2ccc(C(C)(O)Cn3cncn3)c(Cl)n2)cc1Cl (centres unmarked) [I.29] | 3.00^[a] |  |
| COc1ccc(Oc2ccc(C(O)Cn3cncn3)c(Cl)n2)c(Cl)c1 (centres unmarked) [I.30] | 2.32^[a] |  |
| COc1ccc(Oc2ccc(C(C)(O)Cn3cncn3)c(Cl)n2)c(Cl)c1 (centres unmarked) [I.31] | 2.56^[a] |  |
| CC(O)(Cn1cncn1)c1ccc(Oc2ccc(Cl)c(Cl)c2)nc1Cl (centres unmarked) [I.32] | 3.09^[a] |  |
| CC(O)(Cn1cncn1)c1ccc(Oc2ccc(Cl)cc2)nc1OC(F)(F)F (centres unmarked) [I.33] | 3.29^[a] |  |
| OC(Cn1cncn1)c1ccc(Oc2ccc(S(F)(F)(F)(F)F)cc2)nc1Cl (centres unmarked) [I.34] | 2.90^[a] |  |
| CC(O)(Cn1cncn1)c1ccc(Oc2ccc(S(F)(F)(F)(F)F)cc2)nc1Cl (centres unmarked) [I.35] | 3.17^[a] |  |
| CC(O)(Cn1cncn1)c1cnc(Oc2ccc(S(F)(F)(F)(F)F)cc2)cc1C(F)(F)F (centres unmarked) [I.37] | 3.33^[a] |  |
| OC(Cn1cncn1)c1ccc(Oc2ccc(C(F)F)cc2)nc1Cl (centres unmarked) [I.38] | 2.17^[a] |  |
| CC(O)(Cn1cncn1)c1ccc(Oc2ccc(C(F)F)cc2)nc1Cl (centres unmarked) [I.39] | 2.41^[a] |  |
| OC(Cn1cncn1)c1ccc(Oc2ccc(Br)cc2)nc1C(F)(F)F (centres unmarked) [I.40] | 2.82^[a] |  |
| OC(Cn1cncn1)c1ccc(Oc2ccc(Cl)cc2)nc1F (centres unmarked) [I.41] | 2.23^[a] |  |
| CC(O)(Cn1cncn1)c1ccc(Oc2ccc(Cl)cc2)nc1F (centres unmarked) [I.42] | 2.46^[a] |  |
| OC(Cn1cncn1)c1cnc(Oc2ccc(OC(F)(F)F)cc2)cc1C(F)(F)F (centres unmarked) [I.43] | 3.00^[a] |  |
| CC(O)(Cn1cncn1)c1cnc(Oc2ccc(OC(F)(F)F)cc2)cc1C(F)(F)F (centres unmarked) [I.44] | 3.23^[a] |  |
| OC(Cn1cncn1)c1cnc(Oc2ccc(Br)cc2)cc1C(F)(F)F (centres unmarked) [I.48] | 2.75^[a] |  |
| CC(O)(Cn1cncn1)c1cnc(Oc2ccc(Br)cc2)cc1C(F)(F)F (centres unmarked) [I.49] | 2.96^[a] |  |

| Compound | LogP [a] | LogP [b] |
| --- | --- | --- |
| CC(O)(Cn1cncn1)c1cnc(Oc2ccc(C(F)(F)F)cc2)cc1C(F)(F)F (centres unmarked) [I.50] | 3.11^[a] |  |
| OC(Cn1cncn1)c1cnc(Oc2ccc(C(F)F)cc2)cc1C(F)(F)F (centres unmarked) [I.55] | 2.55^[a] |  |
| CC(O)(Cn1cncn1)c1cnc(Oc2ccc(C(F)F)cc2)cc1C(F)(F)F (centres unmarked) [I.56] | 2.73^[a] |  |
| OC(Cn1cncn1)c1cnc(Oc2ccc(Cl)cc2F)cc1C(F)(F)F (centres unmarked) [I.57] | 2.86^[a] |  |
| CC(O)(Cn1cncn1)c1cnc(Oc2ccc(Cl)cc2F)cc1C(F)(F)F (centres unmarked) [I.58] | 3.02^[a] |  |
| OC(Cn1cncn1)c1ccc(Oc2ccc(S(F)(F)(F)(F)F)cc2)nc1C(F)(F)F (centres unmarked) [I.60] | 3.08^[a] |  |
| OC(Cn1cncn1)c1ccc(Oc2ccc(C(F)(F)F)cc2)nc1C(F)(F)F (centres unmarked) [I.61] | 2.84^[a] |  |
| CC(O)(Cn1cncn1)c1ccc(Oc2ccc(S(F)(F)(F)(F)F)cc2)nc1C(F)(F)F (centres unmarked) [I.62] | 3.25^[a] |  |
| OC(Cn1cncn1)c1cnc(Oc2ccc(Br)cc2)cc1C(F)F (centres unmarked) [I.63] | 2.59^[a] |  |
| CC(O)(Cn1cncn1)c1cnc(Oc2ccc(Cl)cc2)cc1C(F)F (centres unmarked) [I.64] | 2.68^[a] |  |
| CC(O)(Cn1cncn1)c1ccc(Oc2ccc(C(F)(F)F)cc2)nc1C(F)(F)F (centres unmarked) [I.65] | 3.04^[a] |  |
| CC(O)(Cn1cncn1)c1ccc(Oc2ccc(Cl)cc2F)nc1C(F)(F)F (centres unmarked) [I.66] | 2.80^[a] |  |
| CC(O)(Cn1cncn1)c1ccc(Oc2ccc(Cl)cc2)nc1C(F)(F)F (centres unmarked) [I.67] | 2.68^[a] |  |
| OC(Cn1cncn1)c1cnc(Oc2ccc(Cl)cc2)cc1Cl (centres unmarked) [I.68] | 2.48^[a] |  |
| C=CC(O)(Cn1cncn1)c1cnc(Oc2ccc(C(F)(F)F)cc2)cc1C(F)(F)F (centres unmarked) [I.69] | 3.33^[a] |  |
| OC(Cn1cncn1)c1ccc(Oc2ccc(Cl)cc2F)nc1C(F)(F)F (centres unmarked) [I.70] | 2.78^[a] |  |
| OC(Cn1cncn1)(c1ccc(Oc2ccc(Cl)cc2)nc1C(F)(F)F)C1CC1 (centres unmarked) [I.71] | 3.35^[a] |  |
| OC(Cn1cncn1)c1ccc(Oc2ccc(Br)cc2)nc1C(F)F (centres unmarked) [I.73] | 2.50^[a] |  |
| OC(Cn1cncn1)c1ccc(Oc2ccc(C(F)F)cc2)nc1C(F)(F)F (centres unmarked) [I.74] | 2.49^[a] |  |
| CC(C)c1ccc(Oc2ccc(C(C)(O)Cn3cncn3)c(C(F)(F)F)n2)cc1 (centres unmarked) [I.75] | 3.35^[a] |  |
